The target of assay [1] is Carbonic anhydrase 2 (Homo sapiens, UniProt P00918).
Description: Inhibitory activity against human Carbonic anhydrase II
In assay [2] the target is Carbonic anhydrase 1 (Homo sapiens, UniProt P00915).
Description: Inhibitory activity against human Carbonic anhydrase I

One may read the Ki as the dissociation constant of the complex between target and ligand, obtained from inhibition or displacement. Lower therefore signals a stronger hold on the target.

Sequence of Carbonic anhydrase 1 (P00915 whole entry): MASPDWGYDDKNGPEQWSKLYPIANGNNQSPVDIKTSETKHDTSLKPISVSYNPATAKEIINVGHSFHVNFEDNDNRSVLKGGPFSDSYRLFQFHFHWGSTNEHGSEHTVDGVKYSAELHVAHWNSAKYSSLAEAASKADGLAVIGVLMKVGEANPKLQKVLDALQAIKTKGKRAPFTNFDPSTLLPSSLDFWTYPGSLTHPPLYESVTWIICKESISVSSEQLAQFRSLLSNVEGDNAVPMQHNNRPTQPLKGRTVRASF

For the compound `CC[C@H](C)[C@H](/N=C(\S)Nc1ccc(S(N)(=O)=O)cc1)C(=O)OCC(=O)NC`, the Ki turned out to be 5 nM in assay [1] and 25 nM in assay [2].

Turning to `CNC(=O)COC(=O)[C@H](CCC(N)=O)/N=C(\S)Nc1ccc(S(N)(=O)=O)cc1`, the Ki is 11 nM in assay [1] and 53 nM in assay [2].

Consider `NS(=O)(=O)c1ccc(NC(=S)N[C@@H](Cc2c[nH]c3ccccc23)C(=O)O)cc1`, for which the inhibition constant Ki was 11 nM in assay [1] and 47 nM in assay [2].

Take `CC(C)C[C@H](NC(=S)Nc1ccc(S(N)(=O)=O)cc1)C(=O)O`: the Ki turned out to be 5 nM in assay [1] and 21 nM in assay [2].

`CNC(=O)COC(=O)[C@H](Cc1c[nH]c2ccccc12)NC(=S)Nc1ccc(S(N)(=O)=O)cc1`: the Ki in assay [1] came to 20 nM; in assay [2], 64 nM.

Turning to `NC(=O)CC[C@H](NC(=S)Nc1ccc(S(N)(=O)=O)cc1)C(=O)O`, the Ki stood at 9 nM in assay [1] and 40 nM in assay [2].

With `C[C@H](NC(=S)Nc1ccc(S(N)(=O)=O)cc1)C(=O)O`, the values for the inhibition constant (Ki) in assay [1] and in assay [2] were 12 nM and 54 nM, respectively.

Turning to `CNC(=O)COC(=O)[C@@H](/N=C(\S)Nc1ccc(S(N)(=O)=O)cc1)C(C)C`, the figures for the inhibitory constant (Ki) in assay [1] and in assay [2] were 5 nM and 31 nM, respectively.

In the case of `CSCC[C@H](/N=C(\S)Nc1ccc(S(N)(=O)=O)cc1)C(=O)O`, the inhibitory constant (Ki) worked out at 4 nM in assay [1] and 27 nM in assay [2].

For `NS(=O)(=O)c1ccc(NC(=S)N2CCC[C@H]2C(=O)O)cc1`, the Ki came to 25 nM in assay [1] and 110 nM in assay [2].

Consider `CNC(=O)COC(=O)[C@H](CCSC)NC(=S)Nc1ccc(S(N)(=O)=O)cc1`, for which the Ki was 5 nM in assay [1] and 31 nM in assay [2].

For the compound `NC(=O)C[C@H](/N=C(\S)Nc1ccc(S(N)(=O)=O)cc1)C(=O)O`, the Ki in assay [1] stood at 6 nM; in assay [2], 27 nM.

For the compound `CC[C@H](C)[C@H](NC(=S)Nc1ccc(S(N)(=O)=O)cc1)C(=O)O`, the inhibition constant Ki in assay [1] worked out at 4 nM; in assay [2], 22 nM.

`CC(C)[C@H](NC(=S)Nc1ccc(S(N)(=O)=O)cc1)C(=O)O`: the Ki in assay [1] stood at 5 nM; in assay [2], 23 nM.

For `CNC(=O)COc1ccc(COC(=O)[C@H](C)NC(=S)Nc2ccc(S(N)(=O)=O)cc2)cc1`, the Ki in assay [1] is 16 nM; in assay [2], 58 nM.

Regarding `CNC(=O)COC(=O)[C@H](Cc1ccccc1)NC(=S)Nc1ccc(S(N)(=O)=O)cc1`, the Ki in assay [1] is 8 nM; in assay [2], 42 nM.

As to `CNC(=O)COC(=O)[C@@H]1CCCN1/C(S)=N\c1ccc(S(N)(=O)=O)cc1`, the figures for the Ki in assay [1] and in assay [2] were 46 nM and 197 nM, respectively.

As for `NS(=O)(=O)c1ccc(N/C(S)=N/[C@@H](Cc2ccccc2)C(=O)O)cc1`, the inhibitory constant (Ki) was 6 nM in assay [1] and 30 nM in assay [2].

Consider `CNC(=O)COC(=O)[C@H](CC(N)=O)/N=C(\S)Nc1ccc(S(N)(=O)=O)cc1`, for which the Ki is 4 nM in assay [1] and 29 nM in assay [2].

As to `CNC(=O)COC(=O)[C@H](CC(C)C)/N=C(\S)Nc1ccc(S(N)(=O)=O)cc1`, the inhibition constant (Ki) was determined as 7 nM in assay [1] and 23 nM in assay [2].

Source of the values: ChEMBL document CHEMBL1137219, “Carbonic anhydrase inhibitors: the first on-resin screening of a 4-sulfamoylphenylthiourea library” (J Med Chem, 2004).
